Assay results: patent US20030044399A1, “Method of treatment” (SmithKline Beecham Corporation, priority 1998, published 2003)
Like-named read-outs stand apart in the source and are kept apart here.

How the values were obtained:
Falcipain 2 = Falcipain 2 (Plasmodium falciparum, UniProt Q8I6U4); experiment: Cysteine protease inhibition, progress curve method, falcipain; format: biochemical; settings: 10 uM Cbz-Leu-Arg-AMC, 100 mM Na acetate pH 5.5, 5 mM cysteine
Description: Standard assay conditions for the determination of kinetic constants used 10 uM fluorogenic peptide substrate, Cbz-Phe-Arg-AMC for the cysteine proteases from Leishmania spp and Schistosoma Mansoni, Cbz-Leu-Arg-AMC for the cysteine proteases from Plasmodium falciparum and Trypanosoma brucei rhodesiensi, and Ac-Lys-Glu-Lys-Leu-Arg-AMC (4 uM final substrate concentration) for the cysteine protease from Trypoanosoma cruzi, and were determined in 100 mM Na acetate at pH 5.5 containing 5 mM cysteine. Stock substrate solutions were prepared at concentrations of […] in DMSO with 10 uM (4 uM for Ac-Lys-Glu-Lys-Leu-Arg-AMC) final substrate concentration in the assays. The final DMSO concentration was 2% and the final volume was 100 uL. All assays were conducted at ambient temperature. Product progress curves were generated over 20 to 30 minutes following formation of AMC product.
Potential inhibitors were evaluated using the progress curve method. Assays were carried out in the presence of variable concentrations of test compound. Reactions were initiated by addition of enzyme to buffered solutions of inhibitor and substrate. Data analysis was conducted according to one of two procedures depending on the appearance of the progress curves in the presence of inhibitors. For those compounds whose progress curves were linear, apparent inhibition constants (Ki,app) were calculated according to equation 1 (Brandt et al., Biochemitsry, 1989, 28, 140):
v=VmA/[Ka(1+I/Ki,app)+A] (1)
Where v is the velocity of the reaction with maximal velocity Vm, A is the concentration of substrate with Michaelis constant of Ka, and I is the concentration of inhibitor.
[AMC]=vsst+(v0−vss)[1−exp (−kobst)]/kobs (2)
Where [AMC] is the concentration of product formed over time t, v0 is the initial reaction velocity and vss is the final steady state rate. Values for kobs were then analyzed as a linear function of inhibitor concentration to generate an apparent second order rate constant (kobs/inhibitor concentration or kobs/[I]) describing the time-dependent inhibition. A complete discussion of this kinetic treatment has been fully described (Morrison et al., Adv. Enzymol. Relat. Areas Mol. Biol., 1988, 61, 201).
Exemplary inhibition data for the compounds used in the present method collected in accordance with the above-described procedure are listed in Table I.

Cruzain = Cruzain (Trypanosoma cruzi, UniProt P25779); experiment: Cysteine protease inhibition, progress curve method, cruzain; format: biochemical; settings: 4 uM Ac-Lys-Glu-Lys-Leu-Arg-AMC, 100 mM Na acetate pH 5.5, 5 mM cysteine; read-out: Cruzain Ki
Outline: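 Buffer was 100 mM sodium acetate pH 5.5 with 5 mM cysteine and 2% DMSO, at ambient temperature; reactions started with enzyme, and AMC formation was followed for 20–30 min. Substrates: Leishmania and Schistosoma, 10 uM Cbz-Phe-Arg-AMC; falcipain, 10 uM Cbz-Leu-Arg-AMC; cruzain, 4 uM Ac-Lys-Glu-Lys-Leu-Arg-AMC. Linear curves gave Ki,app; curved ones gave kobs/[I].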

Rhodazain = Rhodazain (Trypanosoma brucei rhodesiense, UniProt Q95PM0); experiment: Cysteine protease inhibition, progress curve method, rhodazain; format: biochemical, Trypanosoma brucei rhodesiensi; settings: 10 uM Cbz-Leu-Arg-AMC, 100 mM Na acetate pH 5.5, 5 mM cysteine
Chain of Rhodazain (Q95PM0 entry or part of it): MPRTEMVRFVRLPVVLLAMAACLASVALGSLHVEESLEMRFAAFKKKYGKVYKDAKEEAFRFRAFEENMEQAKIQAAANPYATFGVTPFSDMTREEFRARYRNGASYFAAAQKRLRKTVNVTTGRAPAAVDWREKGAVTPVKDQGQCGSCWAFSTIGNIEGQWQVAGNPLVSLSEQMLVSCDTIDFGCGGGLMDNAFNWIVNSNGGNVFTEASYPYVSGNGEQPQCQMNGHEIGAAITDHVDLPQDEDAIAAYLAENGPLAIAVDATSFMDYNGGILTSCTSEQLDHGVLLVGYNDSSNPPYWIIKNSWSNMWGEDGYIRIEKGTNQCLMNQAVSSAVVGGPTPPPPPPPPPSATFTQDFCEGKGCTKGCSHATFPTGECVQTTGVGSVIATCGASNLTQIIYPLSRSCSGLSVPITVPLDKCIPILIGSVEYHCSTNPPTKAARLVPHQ

Chain of Falcipain 2 (Q8I6U4 244-484): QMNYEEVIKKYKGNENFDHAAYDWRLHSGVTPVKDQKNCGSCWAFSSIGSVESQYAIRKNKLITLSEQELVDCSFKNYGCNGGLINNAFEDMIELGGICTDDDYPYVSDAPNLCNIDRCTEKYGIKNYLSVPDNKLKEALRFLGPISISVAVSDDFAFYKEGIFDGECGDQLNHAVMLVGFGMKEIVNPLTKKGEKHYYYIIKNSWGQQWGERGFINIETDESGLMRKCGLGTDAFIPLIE
Chain of Cruzain (P25779 123-337): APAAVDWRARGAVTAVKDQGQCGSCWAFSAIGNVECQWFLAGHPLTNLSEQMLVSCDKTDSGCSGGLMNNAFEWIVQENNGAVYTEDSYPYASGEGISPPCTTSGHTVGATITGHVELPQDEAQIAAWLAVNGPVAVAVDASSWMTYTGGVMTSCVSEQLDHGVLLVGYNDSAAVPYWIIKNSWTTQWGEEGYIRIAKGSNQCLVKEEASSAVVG

| Compound | Ki (Falcipain 2) [nM] | Ki (Cruzain) [nM] | Ki (Rhodazain; Rhodazain Ki (nM)) [nM] | Ki (Rhodazain; read-out: Rhodazain Ki) [nM] |
| --- | --- | --- | --- | --- |
| CC(C)C[C@H](NC(=O)c1cc2ccccc2s1)C(=O)N[C@H]1CCCN(S(=O)(=O)c2nccs2)CC1=O [Example 127, Benzo[b]thiophene-2-carboxylic acid {(S)-3-methyl-1-[3-oxo-1-(thiazole-2-sulfonyl)-azepan-4-ylcarbamoyl]-butyl}amide] | 8.1 | 2.8 | 4.7 |  |
| CC(C)C[C@@H](NC(=O)c1ccc2[nH]ccc2c1)C(=O)N[C@@H]1CCCN(S(=O)(=O)c2cccc[n+]2[O-])CC1=O [Example 54, 1H-Indole-5-carboxylic acid {(S)-3-methyl-1-[3-oxo-1-(1-oxy-pyridine-2-sulfonyl)-azepan-4-ylcarbamoyl]-butyl}amide] | 7.8 | 5.2 | 4.1 |  |
| COc1ccc2oc(C(=O)N[C@H](CC(C)C)C(=O)N[C@@H]3CCCN(S(=O)(=O)c4ncccc4C)CC3=O)cc2c1 (single isomer, unassigned) [Example 171] | 4.9 | 2.5 | 3.2 |  |
| CC(C)C[C@@H](NC(=O)c1ccc2cc[nH]c2c1)C(=O)N[C@@H]1CCCN(S(=O)(=O)c2ccccn2)CC1=O (stereo in doubt) [Example 58, 1H-Indole-6-carboxylic acid {(S)-3-methyl-1-[3-oxo-1-(pyridine-2-sulfonyl)-azepan-4-ylcarbamoyl]-butyl}amide] | 7.1 |  | 3.1 |  |
| CC(C)C[C@@H](NC(=O)c1ccc2[nH]ccc2c1)C(=O)NC1CCCN(S(=O)(=O)c2cccc[n+]2[O-])CC1=O (single isomer, unassigned) [Example 64] | 6.2 | 4.1 | 2.7 |  |
| Benzofblthiophene-2-carboxylic acid {(S)-3-methyl-1-[3-oxo-1-(1-oxy-pyridine-2-sulfonyl)-azepan-4-ylcarbamoyl]-butyl}amide [Example 51] | 5.1 | 6.4 |  | 3 |
| COc1cc2cc(C(=O)N[C@H](CC(C)C)C(=O)N[C@H]3CCCN(S(=O)(=O)c4ccccn4)CC3=O)sc2cc1OC (single isomer, unassigned) [Example 165] | 2.5 | 5.5 | 2.1 |  |
| COc1cccc2cc(C(=O)N[C@H](CC(C)C)C(=O)N[C@H]3CCCN(S(=O)(=O)c4ccccn4)CC3=O)oc12 [Example 164] | 2.2 | 4.2 | 5.1 |  |
| CC(C)C[C@@H](NC(=O)c1cc2ccccc2o1)C(=O)NC1CCCN(S(=O)(=O)c2ccccn2)CC1=O (single isomer, unassigned) [Example 21] | 10 | 3.8 | 3.2 |  |
| COc1cccc2cc(C(=O)N[C@@H](CC(C)C)C(=O)N[C@H]3CCCN(S(=O)(=O)c4ccccc4F)CC3=O)oc12 [Example 93, 7-Methoxy-benzofuran-2-carboxylic acid-{(S)-1-[1-(2-fluoro-benzenesulfonyl)-3-oxo-azepan-4-ylcarbamoyl]-3-methyl-butyl}-amide] | 7 | 11 | 11 |  |
| CC(C)CC(NC(=O)c1ccc2c(c1)OCCCO2)C(=O)N[C@@H]1CCCN(S(=O)(=O)c2cccc[n+]2[O-])CC1=O (single isomer, unassigned) [Example 78] | 7.1 | 4.4 | 4.6 |  |
| Cc1csc(C(=O)NC(CC(C)C)C(=O)N[C@H]2CCCN(C(=O)Nc3ccccc3F)CC2=O)c1 (stereo partly drawn) [Example 220, 4-Methyl-2-carboxylic acid {(S)-1-[-(2-fluoro-phenylcarbamoyl)-3-oxo-azepan-4-ylcarbamoyl]-3-methyl-butyl}-amide] | 3.9 | 8.7 | 4.2 |  |
| [2H]C1(NC(=O)C(CC(C)C)NC(=O)c2cc3ccccc3o2)CCCN(S(=O)(=O)c2ccccn2)C([2H])([2H])C1=O [Example 100, Benzofuran-2-carboxylic acid {(S)-3-methyl-1-[(2,2′,4-tridueterio)-3-oxo-1-(pyridine-2-sulfonyl)-azepan-4-ylcarbamoyl]-butyl}amide] | 6.4 |  | 2.5 |  |
| CC(C)C[C@H](NC(=O)c1cc2ccccc2o1)C(=O)N[C@H]1CCCN(S(=O)(=O)c2cn(C)cn2)CC1=O [Example 42, Benzofuran-2-carboxylic acid {(S)-3-methyl-1-[1-(1-methyl-1H-imidazole-4-sulfonyl)-3-oxo-azepan-4-ylcarbamoyl]-butyl}amide] | 5.3 | 2 | 1.8 |  |
| CC(C)C[C@@H](NC(=O)c1cc2ccccc2s1)C(=O)N[C@@H]1CCCN(S(=O)(=O)c2cccc[n+]2[O-])CC1=O [Example 46, Benzo[b]thiophene-2-carboxylic acid {(S)-3-methyl-1-[3-oxo-1-(1-oxy-pyridine-2-sulfonyl)-azepan-4-ylcarbamoyl]-butyl}amide] | 5.3 | 6.1 |  |  |
| CC(C)C[C@H](NC(=O)c1cccc2ncccc12)C(=O)N[C@H]1CCCN(S(=O)(=O)c2ccccn2)CC1=O [Example 185, Quinoline-5-carboxylic acid {(S)-3-methyl-1-[3-oxo-1-(pyridine-2-sulfonyl)-azepan-4-ylcarbamoyl]-butyl}-amide] | 4.4 | 1.8 | 2.1 |  |
| CC(C)C[C@@H](NC(=O)c1ccc2ncccc2c1)C(=O)N[C@@H]1CCCN(S(=O)(=O)c2ccccn2)CC1=O (single isomer, unassigned) [Example 152] | 3.1 | 2 | 1.6 |  |
| CC(C)C[C@@H](NC(=O)c1ccc(-c2cccc(C(F)(F)F)c2)o1)C(=O)N[C@@H]1CCCN(S(=O)(=O)c2cccc[n+]2[O-])CC1=O [Example 119, 5-(3-Trifluoromethyl-phenyl)-furan-2-carboxylic acid {(S)-3-methyl-1-[3-oxo-1-(1-oxy-pyridine-2-sulfonyl)-azepan-4-ylcarbamoyl]-butyl}amide] | 8.1 |  | 5.1 |  |
| Cc1oc(-c2ccccc2)nc1C(=O)N[C@H](CC(C)C)C(=O)NC1CCCN(S(=O)(=O)c2cccc[n+]2[O-])CC1=O (stereo partly drawn) [Example 117, 5-Methyl-2-phenyl-oxazole-4-carboxylic acid {(S)-3-methyl-1-[3-oxo-1-(1-oxy-pyridine-2-sulfonyl)-azepan-4-ylcarbamoyl]-butyl}amide] | 6.8 | 14 |  |  |
| CC(C)C[C@@H](NC(=O)c1ccc([N+](=O)[O-])o1)C(=O)N[C@@H]1CCCN(S(=O)(=O)c2ccccn2)CC1=O (stereo in doubt) [Example 35, 5-Nitro-furan-2-carboxylic acid {(S)-3-methyl-1-[3-oxo-1-(pyridine-2-sulfonyl)-azepan-4-ylcarbamoyl]-butyl}amide] | 96 |  |  |  |
| CC(C)C[C@H](NC(=O)c1ccc(-c2cccc(C(F)(F)F)c2)o1)C(=O)N[C@@H]1CCCN(S(=O)(=O)c2ccccn2)CC1=O [Example 66, 5-(3-Trifluoromethyl-phenyl)-furan-2-carboxylic acid {(S)-3-methyl-1-[3-oxo-1-(pyridine-2-sulfonyl)-azepan-4-ylcarbamoyl]-butyl}amide] | 10 |  | 5.1 |  |
| COc1ccc2oc(C(=O)N[C@H](CC(C)C)C(=O)N[C@@H]3CCCN(S(=O)(=O)c4ccccn4)CC3=O)cc2c1 (single isomer, unassigned) [Example 69] | 5.6 |  | 2.2 |  |
| COc1cccc2cc(C(=O)N[C@@H](CC(C)C)C(=O)N[C@H]3CCCN(S(=O)(=O)c4ccc(Cl)cc4)CC3=O)oc12 [Example 133, 7-Methoxy-benzofuran-2-carboxylic acid-{(S)-1-[1-(4-chloro-benzenesulfonyl)-3-oxo-azepan-4-ylcarbamoyl]-3-methyl-butyl}-amide] | 3.4 |  |  |  |
